Values joined by “and” are separate entries in the source; they are usually repeats but may differ in a detail not shown here. Equal values may be shown once.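 All cell lines were grown in 96-well plates and treated with compound for 48 hours. Abbreviation: GI50, concentration required for 50% inhibition of growth.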 Active and inactive are the calls of the source. Rule as the data show it: active = GI50 up to about 1.1 µM and inactive = higher.
Columns and labels:
Assay in all cases: inhibition of tumour cell growth, NCI panel, 48 h
786-0 = tested on: 786-0
CAKI-1 = tested on: CAKI-1
EKVX = tested on: EKVX
HL-60 = tested on: HL-60
HOP-92 = tested on: HOP-92
KM12 = tested on: KM12
M14 = tested on: M14
MCF7 = tested on: MCF7
MDA-MB-435 = tested on: MDA-MB-435
NCI-H23 = tested on: NCI-H23
SF-268 = tested on: SF-268
SF-295 = tested on: SF-295
SK-MEL-5 = tested on: SK-MEL-5
SNB-19 = tested on: SNB-19
SNB-75 = tested on: SNB-75
SR = tested on: SR
TK-10 = tested on: TK-10
UACC-257 = tested on: UACC-257
UO-31 = tested on: UO-31
DU-145 = tested on: DU-145

Compound | GI50 (786-0) | GI50 (CAKI-1) | GI50 (EKVX) | GI50 (HL-60) | GI50 (HOP-92) | GI50 (KM12) | GI50 (M14) | GI50 (MCF7) | GI50 (MDA-MB-435) | GI50 (NCI-H23) | GI50 (SF-268) | GI50 (SF-295) | GI50 (SK-MEL-5) | GI50 (SNB-19) | GI50 (SNB-75) | GI50 (SR) | GI50 (TK-10) | GI50 (UACC-257) | GI50 (UO-31) | GI50 (DU-145)
CC(=O)O[C@H]1[C@@H](N2CCCCC2)C[C@H]2[C@@H]3CC=C4C[C@@H](N5CCCC5)CC[C@]4(C)[C@H]3CC[C@@]21C | 36.7 µM (inactive) | > 100 µM (inactive) | > 100 µM (inactive) | 24.9 µM (inactive) | 91.8 µM (inactive) | > 100 µM (inactive) | 19.2 µM (inactive) | > 100 µM (inactive) | 28.6 µM (inactive) | > 100 µM (inactive) | > 100 µM (inactive) | 67.5 µM (inactive) | 32.4 µM (inactive) | > 100 µM (inactive) | > 100 µM (inactive) | 2.74 µM (inactive) | > 100 µM (inactive) | 30.8 µM (inactive) | > 100 µM (inactive) | 
CC(C)CC[C@H](O)[C@@H](C)[C@H]1[C@@H](OC2OC(C)C(O)C(O)C2O)C[C@H]2[C@@H]3CC=C4C[C@@H](O)CC[C@]4(C)[C@H]3[C@@H](O)C[C@]12C (some centres not stated) | 0.084 µM (active) | 2.58 µM (inactive) | 11.4 µM (inactive) | 0.098 µM (active) | 0.312 µM (active) | 3.28 µM (inactive) | 1.55 µM (inactive) | 0.656 µM (active) | 1.55 µM (inactive) | 8.49 µM (inactive) | 1.58 µM (inactive) | 0.0402 µM (active) | 3.35 µM (inactive) | > 100 µM (inactive) | 5.4 µM (inactive) | 0.143 µM (active) | 0.692 µM (active) | 1.12 µM (inactive) | 1.77 µM (inactive) | 
CCOC(=O)NC(=O)c1cn(CCCOC(=O)CCCCCCCCCCC(=O)OCCCn2cc(C(=O)NC(=O)OCC)c(=O)n(C)c2=O)c(=O)n(C)c1=O | > 100 µM (inactive) | > 100 µM (inactive) | > 100 µM (inactive) | > 100 µM (inactive) | 67.8 µM (inactive) | > 100 µM (inactive) | > 100 µM (inactive) |  |  | > 100 µM (inactive) | > 100 µM (inactive) | > 100 µM (inactive) | > 100 µM (inactive) | > 100 µM (inactive) | 47.9 µM (inactive) | > 100 µM (inactive) | > 100 µM (inactive) | > 100 µM (inactive) | > 100 µM (inactive) | 
O=C1N=C(Nc2ccccc2Cl)SC1C(=O)Nc1ccc([N+](=O)[O-])cc1[N+](=O)[O-] (configuration not stated) | > 100 µM (inactive) | > 100 µM (inactive) | > 100 µM (inactive) | > 100 µM (inactive) | 32.5 µM (inactive) | > 100 µM (inactive) | > 100 µM (inactive) |  |  | > 100 µM (inactive) | > 100 µM (inactive) | > 100 µM (inactive) | > 100 µM (inactive) | > 100 µM (inactive) | 66.1 µM (inactive) | > 100 µM (inactive) | 51.6 µM (inactive) | > 100 µM (inactive) | 72.4 µM (inactive) | 
Cn1c2cc(O)cc(O)c2c(=O)c2c([N+](=O)[O-])cccc21 | > 100 µM (inactive) | > 100 µM (inactive) | > 100 µM (inactive) | > 100 µM (inactive) | > 100 µM (inactive) | > 100 µM (inactive) | > 100 µM (inactive) |  |  | > 100 µM (inactive) | > 100 µM (inactive) | > 100 µM (inactive) | > 100 µM (inactive) | > 100 µM (inactive) | > 100 µM (inactive) | > 100 µM (inactive) | > 100 µM (inactive) | > 100 µM (inactive) | > 100 µM (inactive) | 
COc1ccc(/N=N/c2c(N)nn(C)c2N)cc1 | > 100 µM (inactive) | > 100 µM (inactive) | > 100 µM (inactive) | > 100 µM (inactive) | > 100 µM (inactive) | > 100 µM (inactive) | > 100 µM (inactive) |  |  | > 100 µM (inactive) | > 100 µM (inactive) | > 100 µM (inactive) | > 100 µM (inactive) | > 100 µM (inactive) | 51.6 µM (inactive) | 18.5 µM (inactive) | > 100 µM (inactive) | > 100 µM (inactive) | > 100 µM (inactive) | 
O=C1C=CC2(C=C1)C[C@H](NC(=O)OCc1ccccc1)C(=O)O2 | 14.3 µM (inactive) | 18 µM (inactive) | 12.9 µM (inactive) | 2.04 µM (inactive) | 16.3 µM (inactive) | 18.9 µM (inactive) | 15.5 µM (inactive) | 11.2 µM (inactive) |  | 16.1 µM (inactive) | 17.2 µM (inactive) | 26.1 µM (inactive) | 21.9 µM (inactive) | 99.5 µM (inactive) | 25.1 µM (inactive) | 1.08 µM (active) | 15.2 µM (inactive) | 16.9 µM (inactive) | 20.2 µM (inactive) | 30.5 µM (inactive)
CC(=O)Nc1ccc(S(=O)(=O)Nc2cnc3ccccc3n2)cc1 | > 100 µM (inactive) | > 100 µM (inactive) | > 100 µM (inactive) | > 100 µM (inactive) | > 100 µM (inactive) | > 100 µM (inactive) | > 100 µM (inactive) |  |  | > 100 µM (inactive) | > 100 µM (inactive) | > 100 µM (inactive) | > 100 µM (inactive) | > 100 µM (inactive) | 63.5 µM (inactive) | > 100 µM (inactive) | > 100 µM (inactive) | > 100 µM (inactive) | > 100 µM (inactive) | 
O=C(/C=C/c1ccccc1)c1ccc(NCc2nc3ccccc3[nH]2)cc1 | 3.81 µM (inactive) | 10.1 µM (inactive) | 8.65 µM (inactive) | 2.33 µM (inactive) | 6.18 µM (inactive) | 1.95 µM (inactive) | 9.02 µM (inactive) |  |  | 2.55 µM (inactive) | 6.44 µM (inactive) | 3.48 µM (inactive) | 2.45 µM (inactive) | 6.1 µM (inactive) | 4.61 µM (inactive) | 16.1 µM (inactive) | 11.7 µM (inactive) | 3.73 µM (inactive) | 7.21 µM (inactive) | 
CC(C)[Si](OC1=CCC[C@H]2NC(=O)[C@@H](Cc3ccc([N+](=O)[O-])cc3)[C@@]12C)(C(C)C)C(C)C | 5.11 µM (inactive) | 13.2 µM (inactive) | 6.37 µM (inactive) | 3.44 µM (inactive) |  | 3.73 µM (inactive) | 12.5 µM (inactive) | 3.73 µM (inactive) |  | 5.53 µM (inactive) | 7.52 µM (inactive) | 4.59 µM (inactive) | 2.3 µM (inactive) | 12.5 µM (inactive) | 10.4 µM (inactive) | 2.79 µM (inactive) | 11 µM (inactive) | 5.47 µM (inactive) | 13.4 µM (inactive) | 9.46 µM (inactive)
Cc1cc(C)c(N)c(CO)c1 | > 100 µM (inactive) | 4.25 µM (inactive) and 2.87 µM (inactive) | > 100 µM (inactive) and 81.1 µM (inactive) |  | > 59.2 µM (inactive) | > 100 µM (inactive) | > 100 µM (inactive) |  | > 100 µM (inactive) | > 100 µM (inactive) | > 100 µM (inactive) | > 73.6 µM (inactive) and > 74.8 µM (inactive) | > 100 µM (inactive) | > 100 µM (inactive) | > 100 µM (inactive) | > 100 µM (inactive) |  | 45.3 µM (inactive) and 58.5 µM (inactive) | > 100 µM (inactive) and 97.1 µM (inactive) | > 100 µM (inactive)
COc1ccccc1OCC(=N/NC(=O)c1ccncc1)/N=C/c1ccncc1 | > 100 µM (inactive) | > 100 µM (inactive) | > 100 µM (inactive) | > 100 µM (inactive) | 44 µM (inactive) | > 100 µM (inactive) | > 100 µM (inactive) | > 100 µM (inactive) | > 100 µM (inactive) | > 100 µM (inactive) | > 100 µM (inactive) | > 100 µM (inactive) |  | > 100 µM (inactive) |  |  | > 100 µM (inactive) | > 100 µM (inactive) |  | > 100 µM (inactive)
[O-][S+]1Cc2ccccc2CS1 (configuration not stated) | 15.7 µM (inactive) | 13.9 µM (inactive) | 22.9 µM (inactive) | 15.1 µM (inactive) | 14 µM (inactive) | 35.1 µM (inactive) | 15 µM (inactive) |  |  | 14.1 µM (inactive) | 22.9 µM (inactive) | 31.6 µM (inactive) | 43.2 µM (inactive) | > 100 µM (inactive) | 20.3 µM (inactive) | 20 µM (inactive) | 21.8 µM (inactive) | 14.7 µM (inactive) | 21.4 µM (inactive) | 
Nc1sccc1S(=O)(=O)c1ccsc1N | > 100 µM (inactive) | > 100 µM (inactive) | > 100 µM (inactive) |  | > 100 µM (inactive) | > 100 µM (inactive) | > 100 µM (inactive) | > 100 µM (inactive) | > 100 µM (inactive) | > 100 µM (inactive) | > 100 µM (inactive) | > 100 µM (inactive) | > 100 µM (inactive) | > 100 µM (inactive) | > 100 µM (inactive) |  | > 100 µM (inactive) | > 100 µM (inactive) | > 100 µM (inactive) | > 100 µM (inactive)
COc1ccc2[nH]c3c(c2c1)[C@H](C)C[C@@H]1C(=O)N(c2ccccc2)C(=O)[C@H]31 | 22.8 µM (inactive) | 33 µM (inactive) | 23.9 µM (inactive) | > 100 µM (inactive) | 14.9 µM (inactive) | 17.8 µM (inactive) | 35.6 µM (inactive) |  |  | 22.3 µM (inactive) | 26.6 µM (inactive) | 26 µM (inactive) | 39.4 µM (inactive) | 29.4 µM (inactive) | 21.4 µM (inactive) | 26.2 µM (inactive) | 31.3 µM (inactive) | 56.1 µM (inactive) | 36.2 µM (inactive) | 

— ChEMBL document CHEMBL1201862, “PubChem BioAssay data set” (2004)
